{"source": "patent US20220088131A1", "about": "“COMPOSITIONS AND METHODS RELATING TO C5L2” (King's College London, priority 2013, published 2022)", "molecules": {"B1": {"name": "C5adesArg: serum-purified C5a lacking the C-terminal Arg; naturally occurring agonist of C5L2 (protein)", "chain": "TLQKKIEEIAAKYKHSVVKKCCYDGACVNNDETCEQRAARISLGPRCIKAFTECCVVASQLRANISHKDMQLG"}}, "key": {"[1]": {"test_system": "human CD4+ T cells", "assay": "Effect of carboxypeptidase M inhibition on cytokine secretion in CD4+ T cells (CBA)", "assay_type": "cell-based", "settings": "resting and activated CD4+ T cells, 36 hours", "experimental": "FIG. 12A. Effect of carboxypeptidase M (CPM) inhibition on cytokine secretion in resting and activated CD4+ T cells. CD4+ T cells (2.5×10^5) were activated as depicted for 36 hours and supernatants assayed for Th1/2/17 cytokines using CBA. Cells were treated with either C5aR/C5L2 double receptor antagonist (dRA; 7 μM), C5aR antagonist (PMX53; 10 μM), with or without a carboxypetidase M inhibitor (CPMi) or activated in media without any addition as a first control (non-treated, NT) or with a control peptide that lacks activity towards C5a and C5L2 as a second control (Control). The effect of antagonist treatment was assessed in non-activated T cells (white bars), as well as T cells activated with 0.25 μg plate-bound anti-CD3 (light grey bars), anti-CD3/28 (dark grey bars) or anti-CD3/46 (black bars). Data represent n=4 with standard error of the mean indicated. Bar graphs showing effect of CPMi on secretion of IL-17, IFN-γ, and TNFα by resting and activated CD4+ T cells. FIG. 12B. […]\nCD4^+ T cells and CD14^+ monocytes were cultured in medium (RPMI-1640 medium (Sigma-Alich, Suffolk, UK), supplemented with 1% GlutaMAX, 1% penicillin/streptomycin (both Life Technologies, Paisley, UK) and 10% FBS (HyClone Laboratories, Logan, Utah). In the case of T cells media was supplemented with 25 U/ml IL-2 (Sigma-Aldrich; or with concentrations indicated in figure legends). CD4^+ T cells (2.5×10^5) were cultured alone or together with plate-bound anti-CD3 (OKT3, Biolegend, San Diego, Calif.), anti-CD3 and anti-CD28 (CD28.2, BD Pharmingen, San Jose, Calif.) or anti-CD3 and anti-CD46 (TRA-2-10, provided by John Atkinson, Washington University, St Louis, Mo.) all immobilised onto 48-well plates at concentrations of 2 μg/ml PBS overnight at 4° C. […] Cells were cultured at 37° C. and 5% CO2 and cytokine secetion assessed at 12, 24 or 36 h post activation.\nThe Th1/Th2/Th17 Cytometric Bead Array (BD Bioscience) was used to quantify cytokine production by CD4^+ T cells and monocytes following 12 or 36 h culture under distinct activation conditions. […]"}, "[2]": {"test_system": "human CD4+ T cells", "assay": "Rescue of CPM inhibitor-mediated increase in IFN-γ production by CD4+ T cells", "assay_type": "cell-based", "settings": "24 h post activation, FIG. 13", "experimental": "FIG. 13. Serum-purified C5adesArg can partially rescue carboxypeptidase M inhibitor (CPM)-mediated increase in IFN-γ production by CD4+ T cells. Purified human CD4+ T cells were activated with depicted immobilized antibodies in media, or in media with the addition of a CPM inhibitor with or without either serum-purified C5a or C5adesArg. IFN-γ production by cells was assessed 24 h post activation using the CBA Cytokine Bead Array ([…]). Data (±SD) are from three experiments (n=3). *, p<0.05; (student's paired t-test).\nThe ability of serum-purified C5adesArg to rescue carboxypeptidase M inhibitor (CPM)-mediated increase in IFN-γ production by CD4+ T cells was determined. Purified human CD4^+ T cells were activated in media, or in media with the addition of a CPM inhibitor with or without either serum-purified C5a or C5adesArg. IFN-γ production by cells was assessed 24 h post activation using the CBA Cytokine Bead Array. […] However, the increase in IFN-γ production was markedly lower when C5adesArg was present than when C5a was present and also markedly lower than in the absence of both C5a and C5adesArg. Addition of purified C5adesArg but not C5a reduced CPM inhibitor-induced increase in IFN-γ by about 25%."}, "[3]": {"test_system": "human CD4+ T cells", "assay": "Cytokine secretion by CD4+ T cells with C5aR or C5aR/C5L2 blockade (Cytometric Bead Array)", "assay_type": "cell-based", "description": "Human blood was obtained from healthy volunteers following ethical guidelines set by Kings College London (KCL) ethics committee (REC: 09/H0804/72). PBMCs were isolated by density centrifugation (Ficoll-Paque PLUS; GE healthcare, Uppsala, Sweden). Cell subsets were isolated by magnetic separation following manufacturer's instructions (Miltenyi Biotec, Auburn, Calif.). Monocytes were positively selected using anti-CD14 microbeads (average purity 97%) and CD4^+ T cells were isolated from the CD14-negative fraction using anti-CD4 microbeads (average purity 98%). Alternatively, CD4^+ T cells were isolated from purified PBMCs by cell sorting after staining with antibodies to CD14 and CD4 and CD3.\nCD4^+ T cells and CD14^+ monocytes were cultured in medium (RPMI-1640 medium (Sigma-Alich, Suffolk, UK), supplemented with 1% GlutaMAX, 1% penicillin/streptomycin (both Life Technologies, Paisley, UK) and 10% FBS (HyClone Laboratories, Logan, Utah). In the case of T cells media was supplemented with 25 U/ml IL-2 (Sigma-Aldrich; or with concentrations indicated in figure legends). CD4^+ T cells (2.5×10^5) were cultured alone or together with plate-bound anti-CD3 (OKT3, Biolegend, San Diego, Calif.), anti-CD3 and anti-CD28 (CD28.2, BD Pharmingen, San Jose, Calif.) or anti-CD3 and anti-CD46 (TRA-2-10, provided by John Atkinson, Washington University, St Louis, Mo.) all immobilised onto 48-well plates at concentrations of 2 μg/ml PBS overnight at 4° C. Monocytes (2.5×10^5) were cultured either alone or in the presence of LPS or Flagellin (1 μg/ml). […] Cells were cultured at 37° C. and 5% CO2 and cytokine secetion assessed at 12, 24 or 36 h post activation.\n(§1) The Th1/Th2/Th17 Cytometric Bead Array (BD Bioscience) was used to quantify cytokine production by CD4^+ T cells and monocytes following 12 or 36 h culture under distinct activation conditions. Samples were processed following manufacturer's instructions and acquired using BD FACScan. IL-1β amounts secreted into the cell media were measured by ELISA, according to the manufacturer's protocol (R&D Systems, Abingdon, UK)."}, "[4]": {"test_system": "CD14+ monocytes", "assay": "Pro-inflammatory cytokine release by monocytes (CBA)", "assay_type": "cell-based, human", "settings": "resting and Flagellin-stimulated monocytes; 36 hours; dRA 7 μM, PMX53 10 μM; FIG. 9", "experimental": "FIG. 9. C5L2 blockade induces pro-inflammatory cytokine release by human monocytes. CD14+ monocytes (2.5×10^5) were cultured for 36 hours and supernatants assayed for cytokines using CBA. Monocytes were treated with either C5aR/C5L2 double receptor antagonist (dRA; 7 μM), C5aR antagonist (PMX53; 10 μM) or control (non-treated). The effect of antagonist treatment was assessed on non-activated monocytes (white bars) as well as monocytes activated with 1 μg/ml of either Flagellin (light grey bars) or 100 ng/ml LPS (dark grey bars). Data represent n=4 experiments with SEM indicated. Statistical testing was not conducted as insufficient experimental repeats were performed to assume normal distribution. Asterisk denotes that the median value was 10,400 pg/ml.\nHuman blood was obtained from healthy volunteers following ethical guidelines set by Kings College London (KCL) ethics committee (REC: 09/H0804/72). PBMCs were isolated by density centrifugation (Ficoll-Paque PLUS; GE healthcare, Uppsala, Sweden). […]\nas §1, with “Samples were processed following manufacturer's instructions and acquired using BD FACScan.” left out"}, "[5]": {"settings": "activated CD4+ T cells, dRA 7 μM, PMX53 10 μM, FIG. 6"}}, "data": [{"molecule": "CPMi: carboxypetidase (CP) A and B inhibitor, which also effectively inhibits CPM (Sigma CO279; 25 nM) (QQHADPICNKPCKTHDDCSGAWFCQACWNSARTCGPYVG)", "values": [{"measurement": "effect on IFN-γ secretion", "setting": "[1]; FIG. 12A", "value": "may also be present"}, {"measurement": "secretion of IL-17", "setting": "[1]; control cells, untreated cells and with C5aR antagonist, FIG. 12A", "value": "increased secretion"}, {"measurement": "secretion of IL-6", "setting": "[1]; control cells, untreated cells and with C5aR antagonist, FIG. 12B", "value": "increased secretion"}, {"measurement": "IFN-γ production", "setting": "[2]; all activation conditions", "value": "increased IFN-γ production"}]}, {"molecule": "PMX53 [reference compound]", "values": [{"measurement": "secretion of IFN-γ", "setting": "[3]; [5]", "value": "no effect"}, {"measurement": "secretion of IL-17", "setting": "[3]; [5]", "value": "no effect"}, {"measurement": "secretion of IL-6", "setting": "[3]; resting and activated CD4+ T cells, FIG. 7A", "value": "no effect"}, {"measurement": "secretion of IL-6", "setting": "[4]", "value": "no effect"}]}, {"molecule": "B1", "values": [{"measurement": "reduction of CPM inhibitor-induced increase in IFN-γ", "setting": "[2]; serum-purified protein added with CPM inhibitor", "value": "about 25%"}]}]}
